Source: US4454122A, “Adenosine derivatives of anti-inflammatory and analgesic activity, and therapeutic compositions which contain them as their active principle” (Bioresearch S.r.l., priority 1982, dated 1984)

Assays:
[1] = system: fever induced in the rat by beer yeast; experiment: fever induced in the rat by beer yeast (antipyretic activity); assay type: in vivo
Procedure: This was measured for the new products by means of fever induced in the rat by beer yeast (Winder C. V. et al (1961) J. Pharmacol. Exp. Ther. 133, 117).

[2] = system: platelet aggregation induced by arachidonic acid; experiment: in vitro platelet aggregation induced by arachidonic acid (AA); assay type: cell-based
Procedure: (2) "in vitro" tests on platelet aggregation induced by arachidonic acid (AA);
(§1) Blood was withdrawn without stasis, and an anticoagulant (3.8% sodium citrate) was added to give a blood:citrate ratio of 9:1. Plasma rich in platelets and plasma poor in platelets were obtained by centrifuging at ambient temperature.
(§2) The platelet aggregation was estimated using the Born & Cross method (G. V. R. Born and M. J. Cross, J. Physiol., Lond. 168, 178, 1963) on the plasma fraction rich in platelets.
(§3) The aggregating agents were used in the following concentrations:
(§4) ADP (Sigma) 1 μM; collagen (Horn) 5 μml; arachidonic acid 4×10^-4 M.
The capacity of MTA to increase the inhibiting effect of prostacyclin (PGI2) in aggregation induced by AA was also investigated. In FIG. 3, curve 1 relates to the controls, curve 2 to MTA at a concentration of 5×10^-4 M, curve 3 to PGI2 at a concentration of 5×10^-9 M, and curve 4 to a mixture consisting of 5×10^-4 M MTA and 5×10^-9 M PGI2.

[3] = system: platelet aggregation induced by collagen; experiment: platelet aggregation induced by collagen in persons treated with the product ("in vivo" tests); parameters: species or system healthy volunteer subjects; conditions: 100 mg every 8 hours for 3 days; collagen 5 μg/ml
Procedure: (§5) (3) "in vitro" tests on platelet aggregation induced by ADP and collagen in persons treated with the new products.
(§6) Three apparently healthy volunteer subjects respectively, and who had not taken any drug for at least 15 days, were submitted to aggregation tests before and after consuming the new products at a dose of 100 mg every 8 hours for 3 days, these tests then being evaluated. The blood sample for the determination of the platelet aggregation was taken 2 hours […] consuming the last dose of product under test.

mouse = experiment: hot plate test on the mouse according to Roberts (analgesic activity); assay type: in vivo; conditions: 37 mg/kg, oral
Procedure: C--The analgesic activity of the products was tested by two tests considered very significant.
In the hot plate test on the mouse according to Roberts (Roberts E. Simonsen D.G. (1966) Biochem. Pharmac. 15, 1875-) the MTA gives a protection of 50% with an oral dose of 37 mg/kg. An approximately equivalent protection of 58% is obtained with 100 mg/kg of amidopyrine administered orally.

[4] = system: platelet aggregation induced by collagen; experiment: in vitro platelet aggregation induced by collagen (Born & Cross method); assay type: cell-based
Procedure: (§7) (1) "in vitro" tests on platelet aggregation induced by ADP and collagen, in the presence of the new products;
as §1, §2, §3, §4

[5] = system: pleuritis induced in the rat by carragen; experiment: pleuritis induced in the rat by carragen (Velo method); assay type: in vivo; conditions: 75 mg/kg, oral, rat
[6] = lethal dose in the rat and therapeutical index; conditions: in vivo
[7] = granuloma test in the rat by cotton pellets; assay type: in vivo; conditions: in vivo, 9 mg/kg, oral, read-out: TI (granuloma test)
Description: (§8) In the granuloma test in the rat by cotton pellets (Winter […]. et al (1963) J. Pharm. Exper.

[8] = system: granuloma in the rat by cotton pellets; experiment: granuloma test in the rat by cotton pellets; assay type: in vivo; conditions: 9 mg/kg, oral
Description: as §8

[9] = system: sleep induced by pentobarbital in the mouse; experiment: Morris test, duration of the sleep induced by pentobarbital in the mouse; assay type: in vivo; conditions: 20 mg/kg, intramuscular
Procedure: The Morris test was used (Morris R. W. (1966) Arch. int. Pharmacodyn 161, No. 2, 380)
In this test, the MTA increased by 87% the duration of the sleep induced by pentobarbital in the mouse, at an intramuscular dose of 20 mg/kg.

gastro-intestinal system = experiment: secondary effects on the gastro-intestinal system at ED50 doses (gastric lesions); assay type: in vivo, rat; conditions: rat, in vivo
Procedure: In the same test, the ED50 of indomethacine is 9 mg/kg.

[10] = system: experimental edema in the rat by carragen; experiment: experimental edema in the rat by carragen (Winter method), percentage protection; assay type: in vivo; conditions: po, rat
[11] = acute toxicity, DL50 in the mouse; conditions: in vivo, po, orally
Description: The compounds of the present invention are practically free from acute toxicity when administered orally. They are practically free from toxicity at therapeutic doses for any method of administration. The following values are obtained for MTA and MTA sulphoxide: […]

[12] = system: platelet aggregation induced by ADP; experiment: platelet aggregation induced by ADP in persons treated with the product ("in vivo" tests); parameters: species or system healthy volunteer subjects; conditions: 100 mg every 8 hours for 3 days; ADP 1 μM; FIG. 4
Procedure: as §5, §6
More precisely, the full-line curves relate to the values obtained with blood samples from untreated patients, whereas the dashed-line curves relate to the values obtained for the same patients treated with MTA.

[13] = system: experimental edema in the rat by carragen; experiment: experimental edema in the rat by carragen (Winter method), percentage protection; assay type: in vivo; conditions: im; 23 mg/kg intramuscularly, rat; read-out: Percent protection calculated on edema development
Procedure: ^ (a) signifies that the product was administered intramuscularly.

[14] = system: platelet aggregation induced by ADP; experiment: in vitro platelet aggregation induced by ADP (Born & Cross method); assay type: cell-based
Procedure: as §7, §1, §2, §3, §4
Adenosine at a concentration of 1×10^-5 M was used as the antiaggregation activity reference substance.
The results obtained with ADP are shown on the graphs of FIG. 1, in which the abscissa indicates the time in minutes and the ordinate the percentage aggregation.
Curve 1 relates to the controls, curve 2 to the samples treated with 1×10^-5 M adenosine, and curve 3 to the samples treated with 5×10^-4 M MTA.

[15] = system: stretching by phenylquinone; experiment: stretching test by phenylquinone (analgesic activity); assay type: in vivo; conditions: 37 mg/kg, oral
[16] = summary of in vitro and in vivo tests

CSC[C@H]1O[C@@H](n2cnc3c(N)ncnc32)[C@H](O)[C@@H]1O [MTA, 5'-deoxy-5'-methyl-thioadenosine]
temperature reduction ([1]; 80 mg/kg, intramuscular): 2.35% | temperature reduction with respect to the controls ([1]; 300 mg/kg, oral, one hour after administration): 4.59% | temperature after lowering (from 38.8° C.) ([1]; 300 mg/kg, oral, one hour after administration, lowering from 38.8° C.): 37.4 °C | platelet aggregation inhibiting effect, AA induced (in words) ([2]; 2.5×10^-4, 5×10^-4 and 10^-3 M, AA 4×10^-4 M, FIG. 2): proportional to its concentration | antiaggregation action alone, AA induced (in words) ([2]; MTA 5×10^-4 M or PGI2 5×10^-9 M, each alone, FIG. 3): ineffective | inhibition of platelet aggregation induced by collagen (in words) [3]: not effective in inhibiting platelet aggregation induced by collagen | latency time of platelet aggregation induced by collagen (in words) [3]: lengthens the latency time | protection in the hot plate test (mouse): 50% | inhibiting power towards platelet aggregation induced by collagen (in words) ([4]; in vitro, collagen printed 5 μml): no inhibiting power towards platelet aggregation induced by collagen which was worthy of note | direct effect on the 2nd aggregation wave (in words) [4, 16]: negligible direct effect on the 2nd aggregation wave | effect on aggregation induced by collagen, overall (in words) [4, 16]: practically no effect on aggregation induced by collagen | protection calculated on the total number of cells present in the exudate [5]: 48.8% | protection calculated on the volume of the exudate [5]: 42.4% | selectivity ratio ([6]; edema test in the rat, read-out: therapeutical index (TI)): > 54 | LD50 ([6]; rat, route printed "/oa"): 200 mg/kg | selectivity ratio [7]: 222 | protection in the granuloma test [8]: 30% | increase of the duration of the sleep induced by pentobarbital [9]: 87% | secondary effect on the gastro-intestinal system / gastric lesions (gastro-intestinal system): no secondary effect on the gastro-intestinal system | inhibition in vivo at 37 mg/kg ([10]; 37 mg/kg orally, read-out: Percent protection calculated on edema development): 50% | ED50 ([10]; administered orally, read-out: ED50 (edema test)): 37 mg/kg | LD50 [11]: > 2000 mg/kg | platelet aggregation induced by ADP "in vivo" (in words) [12]: strongly inhibits platelet aggregation induced by ADP | inhibition in vivo at 23 mg/kg [13]: 50% | effect on primary platelet aggregation due to ADP (in words) ([14]; 5×10^-4 M, ADP 1 μM, in vitro, FIG. 1): strongly reduces primary platelet aggregation due to ADP | effect on 2nd aggregation wave (in words) ([14]; 5×10^-4 M, ADP 1 μM, in vitro, as a consequence of reduced primary aggregation): inhibits the 2nd aggregation wave | effect on the 1st aggregation wave (in words) [14, 16]: inhibits the 1st aggregation wave | inhibition of platelet aggregation induced by ADP, overall (in words) [14, 16]: strongly inhibits platelet aggregation induced by ADP | protection in the stretching test by phenylquinone [15]: 51%
